Measured values taken from the Kinase Knowledgebase extract (Sharma et al. 2016).
pIC50: −log10 of the molar value.

Target: EGFR (UniProt P00533)
Sequence (P00533 whole entry, looked up): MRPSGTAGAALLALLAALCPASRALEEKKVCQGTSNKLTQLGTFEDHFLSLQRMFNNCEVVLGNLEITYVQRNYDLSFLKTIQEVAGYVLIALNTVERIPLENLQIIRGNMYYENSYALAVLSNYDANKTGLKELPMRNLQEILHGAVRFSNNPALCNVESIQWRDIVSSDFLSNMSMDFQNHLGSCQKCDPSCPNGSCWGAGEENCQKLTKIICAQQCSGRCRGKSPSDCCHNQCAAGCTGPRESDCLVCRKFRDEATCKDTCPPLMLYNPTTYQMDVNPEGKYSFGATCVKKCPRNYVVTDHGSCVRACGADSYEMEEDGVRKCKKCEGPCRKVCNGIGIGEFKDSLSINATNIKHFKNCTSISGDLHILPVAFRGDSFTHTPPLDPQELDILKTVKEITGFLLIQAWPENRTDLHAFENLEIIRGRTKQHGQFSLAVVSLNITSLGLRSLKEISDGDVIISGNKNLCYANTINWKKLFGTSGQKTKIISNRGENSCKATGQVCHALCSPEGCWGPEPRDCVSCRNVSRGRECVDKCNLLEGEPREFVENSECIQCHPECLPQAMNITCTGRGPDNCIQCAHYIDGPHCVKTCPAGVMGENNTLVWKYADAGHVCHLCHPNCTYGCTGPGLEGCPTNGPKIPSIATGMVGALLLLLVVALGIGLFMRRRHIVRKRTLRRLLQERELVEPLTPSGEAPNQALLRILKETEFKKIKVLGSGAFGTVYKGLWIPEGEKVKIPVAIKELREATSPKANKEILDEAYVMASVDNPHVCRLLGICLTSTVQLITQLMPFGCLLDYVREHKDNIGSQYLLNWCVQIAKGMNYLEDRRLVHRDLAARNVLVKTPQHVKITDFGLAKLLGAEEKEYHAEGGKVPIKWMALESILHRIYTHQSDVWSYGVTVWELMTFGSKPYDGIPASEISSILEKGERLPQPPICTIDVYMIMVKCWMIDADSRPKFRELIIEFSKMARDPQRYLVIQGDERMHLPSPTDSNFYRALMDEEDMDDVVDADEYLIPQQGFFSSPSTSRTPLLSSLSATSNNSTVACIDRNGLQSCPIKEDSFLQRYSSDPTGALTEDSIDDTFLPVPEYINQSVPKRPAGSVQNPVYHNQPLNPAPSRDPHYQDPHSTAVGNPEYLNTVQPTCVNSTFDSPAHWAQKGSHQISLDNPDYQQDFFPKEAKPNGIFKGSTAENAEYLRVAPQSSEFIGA

pIC50, ≥ 6.00:
COc1ccc(S(=O)(=O)Nc2ncnc3cc(OCCN4CCCCC4)c(OC)cc23)cc1OC
COc1cc2c(NS(=O)(=O)c3ccc(Cl)cc3)ncnc2cc1OCCCN1CCOCC1
CCN(CC)CCOc1cc2ncnc(NS(=O)(=O)c3ccccc3C)c2cc1OC
COc1cc2c(NS(=O)(=O)c3ccc(F)cc3)ncnc2cc1OCCCN1CCOCC1
COc1cc2c(NS(=O)(=O)c3ccccc3C)ncnc2cc1OCCCN1CCOCC1
COc1cc2c(NS(=O)(=O)c3ccccc3Cl)ncnc2cc1OC1CCN(C)CC1
COc1cc2c(NS(=O)(=O)c3ccccc3)ncnc2cc1OCCCN1CCOCC1
COc1cc2c(NS(=O)(=O)c3ccc(Br)cc3)ncnc2cc1OCCCN(C)C
COc1ccc(S(=O)(=O)Nc2ncnc3cc(OCCCN(C)C)c(OC)cc23)cc1OC
COc1cc2c(NS(=O)(=O)c3cccc(Cl)c3)ncnc2cc1OC1CCN(C)CC1
COc1cc2c(NS(=O)(=O)c3ccc(F)cc3)ncnc2cc1OCCN1CCN(C)CC1
CCN(CC)CCOc1cc2ncnc(NS(=O)(=O)c3ccc(Sc4ccccc4)s3)c2cc1OC
COc1cc2c(NS(=O)(=O)c3ccccc3Cl)ncnc2cc1OCCCN1CCOCC1
COc1cc2c(NS(=O)(=O)c3ccccc3)ncnc2cc1OCCCN(C)C
CCN(CC)CCOc1cc2ncnc(NS(=O)(=O)c3ccc(Sc4cccs4)s3)c2cc1OC
COc1cc2c(NS(=O)(=O)c3ccc(Sc4ccccc4)s3)ncnc2cc1OCCCN(C)C
CCN(CC)CCOc1cc2ncnc(NS(=O)(=O)c3c(C)cc(C)cc3C)c2cc1OC
COc1cc2c(NS(=O)(=O)c3ccc(C(C)(C)C)cc3)ncnc2cc1OCCN1CCOCC1
COc1cc2c(NS(=O)(=O)c3ccc(Cl)cc3)ncnc2cc1OCCN1CCOCC1
COc1cc2c(NS(C)(=O)=O)ncnc2cc1OCCN1CCN(C)CC1
COc1cc2c(NS(=O)(=O)c3cc(Cl)cc(Cl)c3)ncnc2cc1OCCN1CCN(C)CC1
COc1cc2c(NS(=O)(=O)c3ccccc3Cl)ncnc2cc1OCCCN(C)C
CCN(CC)CCOc1cc2ncnc(NS(=O)(=O)c3cccc4cccnc34)c2cc1OC
COc1cc2c(NS(=O)(=O)c3ccc(F)cc3)ncnc2cc1OC1CCN(C)CC1
COc1cc2c(NS(=O)(=O)c3ccccc3Br)ncnc2cc1OCCN1CCOCC1
COc1cc2c(NS(=O)(=O)c3ccc(Cl)cc3)ncnc2cc1OCCN1CCCCC1
COc1cc2c(NS(=O)(=O)c3ccc(Cl)cc3Cl)ncnc2cc1OCCCN1CCOCC1
COc1ccc(S(=O)(=O)Nc2ncnc3cc(OCCN4CCCCC4)c(OC)cc23)cc1
COc1cc2c(NS(=O)(=O)c3ccc(Cl)cc3)ncnc2cc1OC1CCN(C)CC1
COc1cc2c(NS(=O)(=O)c3ccc(Br)cc3)ncnc2cc1OCCN1CCOCC1
COc1cc2c(NS(=O)(=O)c3cccc4cccnc34)ncnc2cc1OCCCN1CCOCC1
COc1cc2c(NS(=O)(=O)c3ccc(C(C)(C)C)cc3)ncnc2cc1OCCCN(C)C
CCN(CC)CCOc1cc2ncnc(NS(=O)(=O)c3cc(Cl)c(Cl)s3)c2cc1OC
COc1cc2c(NS(=O)(=O)c3cccc(Cl)c3Cl)ncnc2cc1OCCN1CCOCC1
COc1cc2c(NS(=O)(=O)c3cccc(Br)c3)ncnc2cc1OC1CCN(C)CC1
COc1cc2c(NS(=O)(=O)c3ccc(Sc4cccs4)s3)ncnc2cc1OC1CCN(C)CC1
COc1cc2c(NS(=O)(=O)c3cccc(Cl)c3)ncnc2cc1OCCCN1CCOCC1
COc1cc2c(NS(=O)(=O)c3cccc(Br)c3)ncnc2cc1OCCCN(C)C
COc1cc2c(NS(=O)(=O)c3cc(Cl)cc(Cl)c3)ncnc2cc1OCCN1CCOCC1
COc1cc2c(NS(=O)(=O)c3ccc(Cl)cc3)ncnc2cc1OCCCN(C)C
COc1cc2c(NS(=O)(=O)c3cccc(Br)c3)ncnc2cc1OCCN1CCCCC1
COc1ccc(S(=O)(=O)Nc2ncnc3cc(OCCCN4CCOCC4)c(OC)cc23)cc1
COc1cc2c(NS(=O)(=O)c3ccccc3Br)ncnc2cc1OCCCN1CCOCC1
COc1cc2c(NS(=O)(=O)c3ccc(Cl)s3)ncnc2cc1OCCCN(C)C
COc1ccc(OC)c(S(=O)(=O)Nc2ncnc3cc(OCCN4CCN(C)CC4)c(OC)cc23)c1
COc1cc2c(NS(=O)(=O)c3ccc(OC(F)(F)F)cc3)ncnc2cc1OC1CCN(C)CC1
COc1cc2c(NS(=O)(=O)Cc3ccccc3)ncnc2cc1OCCN1CCCCC1
COc1cc2c(NS(=O)(=O)c3ccc(OC(F)(F)F)cc3)ncnc2cc1OCCN1CCCCC1
COc1cc2c(NS(=O)(=O)c3ccc(Cl)s3)ncnc2cc1OCCN1CCCCC1
COc1ccc(S(=O)(=O)Nc2ncnc3cc(OCCN4CCN(C)CC4)c(OC)cc23)cc1
COc1cc2c(NS(=O)(=O)c3cccc4cccnc34)ncnc2cc1OCCCN(C)C
COc1cc2c(NS(=O)(=O)c3sc(C)nc3C)ncnc2cc1OCCN1CCOCC1
COc1cc2c(NS(=O)(=O)c3cccc(Cl)c3)ncnc2cc1OCCCN(C)C
COc1cc2c(NS(=O)(=O)c3cc(Cl)cc(Cl)c3)ncnc2cc1OCCCN1CCOCC1
COc1cc2c(NS(=O)(=O)c3cccc(Cl)c3)ncnc2cc1OCCN1CCOCC1
COc1cc2c(NS(=O)(=O)c3cn(C)cn3)ncnc2cc1OCCN1CCCCC1
COc1cc2c(NS(=O)(=O)c3ccc(Cl)s3)ncnc2cc1OCCN1CCOCC1
COc1cc2c(NS(=O)(=O)c3ccccc3Br)ncnc2cc1OC1CCN(C)CC1
COc1cc2c(NS(=O)(=O)c3ccccc3)ncnc2cc1OCCN1CCOCC1
COc1cc2c(NS(=O)(=O)c3ccc(C(C)(C)C)cc3)ncnc2cc1OCCN1CCN(C)CC1
CCN(CC)CCOc1cc2ncnc(NS(=O)(=O)c3ccc(Br)cc3)c2cc1OC
CCN(CC)CCOc1cc2ncnc(NS(=O)(=O)c3ccccc3)c2cc1OC
COc1cc2c(NS(=O)(=O)Cc3ccccc3)ncnc2cc1OCCN1CCOCC1
COc1cc2c(NS(=O)(=O)c3ccc(Cl)s3)ncnc2cc1OCCN1CCN(C)CC1
